Laboratory results: PubChem BioAssay (NCI)
Several values for one entry are separate records, joined by “and”; a condition that tells them apart may be missing. Equal entries are not always repeated.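 Each compound was tested at five concentrations against cells in 96-well plates for 48 hours. Abbreviation: GI50, concentration required for 50% inhibition of growth. TGI marks complete inhibition of growth.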

How the values were obtained:
Test in all cases: inhibition of tumour cell growth, NCI panel, 48 h
[1] = test system: RXF 393 renal
[2] = test system: NCI-H23 lung
[3] = test system: A498 renal
[4] = test system: MALME-3M melanoma
[5] = test system: HCC-2998 colon
[6] = test system: SF-539 CNS
[7] = test system: SNB-19 CNS
[8] = test system: OVCAR-8 ovarian
[9] = test system: EKVX NSCLC
[10] = test system: HT29 colon

SMILES	GI50 [1]	TGI [1]	GI50 [2]	TGI [2]	GI50 [3]	TGI [3]	GI50 [4]	TGI [4]	GI50 [5]	TGI [5]	GI50 [6]	TGI [6]	GI50 [7]	TGI [7]	GI50 [8]	TGI [8]	TGI [9]	TGI [10]	GI50 [9]	GI50 [10]
COc1cc(OC)cc(-c2ccc(-c3ccc(C(=N)N)s3)s2)c1	1.25 µM	2.99 µM	1.66 µM	3.34 µM	1.46 µM	3.05 µM	1.25 µM	3.28 µM	1.03 µM	2.58 µM	1.24 µM	3.45 µM	1.72 µM	3.69 µM	1.66 µM	4.16 µM				
Nc1c(S(=O)(=O)O)cc(Nc2cccc(S(N)(=O)=O)c2)c2c1C(=O)c1ccccc1C2=O		> 100 µM		> 100 µM		> 100 µM		87.9 µM				> 100 µM		> 100 µM		> 100 µM	> 100 µM	> 100 µM		
COc1cc[c]([Sb]([Br])([CH]=C(C)C)([CH]=C(C)C)[CH]=C(C)C)cc1	8.8 µM	59.1 µM	4.72 µM	34.6 µM	28.8 µM	> 100 µM	2.28 µM	> 100 µM	6.53 µM	> 100 µM			5.4 µM	78.9 µM	8.15 µM	> 100 µM	39.6 µM	> 100 µM	2.28 µM	4.89 µM
CCN1CCC2(CC1)NC(=O)c1c(c3ccc(Cl)c(Cl)c3n1C)C2C#N (stereo not given)	1.24 µM	4.13 µM	3.71 µM	16 µM	1.34 µM	3.32 µM	1.76 µM	3.37 µM	1.73 µM	3.26 µM	1.89 µM	4.52 µM	7.1 µM	24.5 µM			17.8 µM	4.11 µM	3.4 µM	1.92 µM
COc1cc(-c2nc3ccccc3[nH]2)ccc1OCC(=O)N=Nc1c(O)[nH]c2ccc(Cl)cc12	1.8 µM	3.48 µM	1.73 µM	3.48 µM	2.18 µM	5.42 µM	1.53 µM	2.93 µM	1.32 µM	2.8 µM	1.69 µM	3.1 µM	1.63 µM	3.04 µM			> 100 µM	3.48 µM	4.94 µM	1.62 µM
Cc1coc2c1CC1OC1(C)CCC1OC1(C)C2 (stereo not given)				> 100 µM		> 100 µM				> 100 µM		> 100 µM		> 100 µM		> 100 µM	> 100 µM			
COc1ccc(C2=CC(c3ccc(Oc4ccnc5cc(Cl)ccc45)c(OC)c3)c3c(nc(OC)[nH]c3=O)N2)cc1 (stereo not given)	21.8 µM	> 100 µM	9.03 µM	> 100 µM	48 µM	> 100 µM	> 100 µM	> 100 µM	> 100 µM	> 100 µM	20.7 µM	> 100 µM	61.4 µM	> 100 µM	4.85 µM	> 100 µM		> 100 µM		4.24 µM
CC1(C(=O)NCCN(CCNC(=O)C2(C)CC3(C)CC(C)(C2)C(=O)NC3=O)CCNC(=O)C2(C)CC3(C)CC(C)(C2)C(=O)NC3=O)CC2(C)CC(C)(C1)C(=O)NC2=O (stereo not given)		> 100 µM		> 100 µM		> 100 µM				> 100 µM		> 100 µM		> 100 µM		> 100 µM	> 100 µM	> 100 µM		
NCCn1ccc(NC(c2ccccc2)(c2ccccc2)c2ccccc2)nc1=O		21.3 µM				> 100 µM		33.4 µM		31.9 µM		31.3 µM				> 100 µM	59.9 µM	31.1 µM		
COC1=C(C)C(=O)C2=C(C1=O)C(CO)N1C(C#N)C3CC4C(C1C2N1CCOC41)N3C (stereo not given)	0.00201 µM and 0.0178 µM		0.00173 µM and < 0.0134 µM						0.00395 µM					8.15 µM and 5.65 µM and 13.6 µM		0.257 µM and 0.404 µM and 0.0957 µM		0.423 µM and 0.0773 µM	0.00438 µM and < 0.0144 µM	
COc1ccccc1-c1ccc2nc(NC(=O)Nc3cc(C(F)(F)F)cc(C(F)(F)F)c3)sc2c1	2.19 µM	6.18 µM	2.02 µM	7.09 µM	1.64 µM	3.9 µM	1.81 µM	4.29 µM	2.65 µM	11.1 µM	1.99 µM	5.5 µM	2.44 µM	12.2 µM	3.04 µM	11.2 µM		9.21 µM		2.15 µM
Cc1cc(Nc2cc(CN3CCOCC3)c3nc(C)c(Cc4ccc(Cl)cc4F)n3n2)n[nH]1	0.545 µM	2.13 µM	1.72 µM	8.35 µM	0.288 µM	1.1 µM	4.35 µM	20.6 µM	1.49 µM	3.13 µM	1.36 µM	3.26 µM	6.31 µM	19 µM	2.79 µM	17.2 µM		12.3 µM		1.44 µM
O=S(=O)(CC#CCCCOCC#Cc1ccccc1C#CCS(=O)(=O)c1ccccc1)c1ccccc1			15.5 µM	44.8 µM	> 100 µM	> 100 µM	20.6 µM	59.7 µM			22.9 µM	45.3 µM	> 100 µM	> 100 µM	16.1 µM	42 µM	> 100 µM		> 100 µM	
Cc1cc2c(=O)cc(-c3ccc(C(F)(F)F)cc3)oc2c(C(=O)O)c1C		> 100 µM		> 100 µM				> 100 µM				> 100 µM		> 100 µM		> 100 µM	> 100 µM	> 100 µM		
COc1ccc(N2CCN(CN3CCN(c4ccc(OC)cc4)C3)C2)cc1	> 100 µM	> 100 µM	48 µM	> 100 µM	1.82 µM	> 100 µM			50.4 µM	> 100 µM	> 100 µM	> 100 µM	> 100 µM	> 100 µM	> 100 µM	> 100 µM	> 100 µM	> 100 µM	> 100 µM	> 100 µM
N.N.N.N.N.N#N.[Cl-].[Os+7]	> 100 µM	> 100 µM	> 100 µM	> 100 µM			> 100 µM	> 100 µM	> 100 µM	> 100 µM	> 100 µM	> 100 µM	> 100 µM	> 100 µM	> 100 µM	> 100 µM	> 100 µM		> 100 µM	
